Reference: patent publication US20240376138A1, “Crystal Forms, Preparation Method And Application Of Aryl Phosphine Oxide Compound” (Chengdu Di'Ao Jiuhong Pharmaceutical Factory, priority 2021, published 2024)
Like-named read-outs stand apart in the source and are kept apart here.

Assays:
[1] = biological target: Ba/F3 cells expressing EGFR-C797S/T790M/Del19 (Homo sapiens, UniProt P00533, T790M/C797S, cells depend on it, form not given); assay: Cell anti-proliferation experiment 1, BaF3 cells expressing EGFR mutation (CellTiter-Glo); type: cell-based; settings: read-out: EGFR-C797S/T790M/Del19 IC50
[2] = biological target: Ba/F3 cells expressing EGFR-C797S/T790M/L858R (Homo sapiens, UniProt P00533, T790M/C797S/L858R, cells depend on it); assay: as above; type: cell-based; settings: read-out: EGFR-C797S/T790M/L858R IC50
Description: (§6) Test purpose: to detect the effect of the test compounds on the proliferation of cell lines containing EGFR mutations in BaF3 cells • 2. […] Cell information: Cell lines containing EGFR mutations in BaF3 were from WuXiAppTec: • BaF3-cell lines expressing EGFR mutation • EGFR-T790M/Del19 • EGFR-C797S/Del19 • EGFR-T790M/L858R • EGFR-C797S/L858R • EGFR-C797S/T790M/L858R • EGFR-C797S/T790M/Del19 • EGFR-WT wild-type cell lines • 2.2. Test method • Day 0: Cells were seeded in a plate. • a. An ultraviolet lamp of a biological safety cabinet was turned on and countdown was started for 30 minutes. • b. A medium was preheated in a 37° C. water bath. • c. After the ultraviolet irradiation was finished, the biological safety cabinet was opened. The pre-heated medium, PBS, and the like, were wiped with alcohol and placed in the biological safety cabinet. • d. The cells were removed from an incubator, blown to a uniform cell suspension in the biological safety cabinet and counted. • e. Based on the cell counting results, the cell suspension was adjusted to a density of 3,000 cells per well and 50 microliters per well, and seeded in 384-well plates. • f. The cells after seeding were incubated in a 5% CO2 incubator at 37° C. for 3 hours. • g. Compounds were added to the cell plates using Tecan (liquid workstation). • Day 3: the cell plate added with the compounds and CTG (CellTiter-Glo chemiluminescence cell activity assay reagent) were equilibrated at room temperature, 25 μl of CTG was added to each well, centrifuged at 1,000 rpm for 1 minute, and shaken for 1-2 minutes. And centrifuging for 1 minute at 1,000 rpm again, the cell plates were allowed to settle for 10 minutes to detect a signal value in Envision. The IC50 of each compound was calculated by computer fitting with XL-Fit analysis software (the IC50 of the compound on the cell activity inhibition could be obtained by reading the concentrations of the corresponding compounds at 500 inhibition rate). Inhibition rate % C (reading value of the control group without drug−reading value of the sample)/reading value of the control group without drug×100. • 3.

[3] = biological target: Ba/F3 cells expressing EGFR-T790M/Del19 (Homo sapiens, UniProt P00533, T790M, cells depend on it, form not given); assay: as above; type: cell-based; settings: 3 days, CTG, read-out: EGFR-T790M/Del19 IC50
[4] = biological target: T1, BaF3 cells expressing EML-4-ALK-WT (Homo sapiens, UniProt Q9UM73); assay: Cell anti-proliferation experiment 3, BaF3 cells with ALK fusion (CellTiter-Glo); type: cell-based; settings: 3 days, CTG, read-out: EML-4-ALK-WT IC50
T1 construct: fused on or other part: Q9HC35 (Echinoderm microtubule-associated protein-like 4)
Excerpt: (§1) • 1. […] Test information: • 2.1. Cell information: Cell lines containing ALK mutations in BaF3 were from WuXiAppTec: • Ba/F3-cell lines expressing ALK gene fusion and mutation • Ba/F3-EML-4-ALK-WT • Ba/F3-EML-4-ALK-L 1196M • 2.2.
(§2) Test results: The IC50 values of the compound DA and the control compound against BaF3 cells expressing EML-4-ALK-WT and EML-4-ALK-L1196M are shown in Table 22. • 4.

[5] = biological target: Ba/F3 cells expressing EGFR-C797S/Del19 (Homo sapiens, UniProt P00533, C797S, cells depend on it, form not given); assay: Cell anti-proliferation experiment 1, BaF3 cells expressing EGFR mutation (CellTiter-Glo); type: cell-based; settings: 3 days, CTG, read-out: EGFR-C797S-Del19 IC50
[6] = biological target: T2, BaF3 cells expressing EML-4-ALK-L1196M (Homo sapiens, UniProt Q9UM73, L1196M, cells depend on it); assay: Cell anti-proliferation experiment 3, BaF3 cells with ALK fusion and mutation (CellTiter-Glo); type: cell-based; settings: 3 days, CTG, read-out: EML-4-ALK-L1196M IC50
T2 construct: fused on or other part: Q9HC35 (Echinoderm microtubule-associated protein-like 4)
Excerpt: as §1, §2

[7] = biological target: Ba/F3 cells expressing EGFR-WT (Homo sapiens, UniProt P00533); assay: Cell anti-proliferation experiment 1, BaF3 EGFR-WT wild-type cell line (CellTiter-Glo); type: cell-based; settings: read-out: EGFR-WT IC50
Description: as §6

[8] = biological target: Ba/F3 cells expressing EGFR-C797S/L858R (Homo sapiens, UniProt P00533, C797S/L858R, cells depend on it); assay: Cell anti-proliferation experiment 1, BaF3 cells expressing EGFR mutation (CellTiter-Glo); type: cell-based; settings: 3 days, CTG, read-out: EGFR-C797S/L858R IC50
Description: (§7) Test purpose: to detect the effect of the test compounds on the proliferation of cell lines containing EGFR mutations in BaF3 cells • 2. Test information: • 2.1. Cell information: Cell lines containing EGFR mutations in BaF3 were from WuXiAppTec: • BaF3-cell lines expressing EGFR mutation • EGFR-T790M/Del19 • EGFR-C797S/Del19 • EGFR-T790M/L858R • EGFR-C797S/L858R • EGFR-C797S/T790M/L858R • EGFR-C797S/T790M/Del19 • EGFR-WT wild-type cell lines • 2.2. Test method • Day 0: Cells were seeded in a plate. • a. An ultraviolet lamp of a biological safety cabinet was turned on and countdown was started for 30 minutes. • b. A medium was preheated in a 37° C. water bath. • c. After the ultraviolet irradiation was finished, the biological safety cabinet was opened. […] The cells were removed from an incubator, blown to a uniform cell suspension in the biological safety cabinet and counted. • e. […] The IC50 of each compound was calculated by computer fitting with XL-Fit analysis software (the IC50 of the compound on the cell activity inhibition could be obtained by reading the concentrations of the corresponding compounds at 500 inhibition rate). Inhibition rate % C (reading value of the control group without drug−reading value of the sample)/reading value of the control group without drug×100. • 3.

[9] = biological target: Ba/F3 cells expressing EGFR-T790M/L858R (Homo sapiens, UniProt P00533, T790M/L858R, cells depend on it); assay: as above; type: cell-based; settings: 3 days, CTG, read-out: EGFR-T790M/L858R IC50
Description: as §7

[10] = system: PC9 cells expressing EGFR-Del19; assay: Cell anti-proliferation experiment 2, PC9 cells (SRB); type: cell-based; settings: Homo sapiens, PC-9, 72 h, read-out: EGFR-Del 19 GI50
Description: (§3) • 1. […] Test information: • 2.1. Cell information: PC9 cells carried EGFR Del19 mutation, and the rest of mutant cells were constructed from PC9 cells according to the conventional stable cell strain construction method. • PC9-cell lines expressing EGFR mutation • EGFR-Del19 • EGFR-T790M/Del19 • EGFR-C797S/T790M/Del19 • 2.2. Test method:
(§4) The test compounds were diluted by 5 times each time with an appropriate concentration as an initial concentration of the test, and totally diluted into 6 concentration gradients. […] SRB (Sulforhodamine B) detection method was used, and the optical density value of each well was read by a microplate reader at 490 nm wavelength.
(§5) The optical density of the cells at the drug action of 0 was set as a Tz value representing the value of the cells at the time that the drug was added. The optical density value of the cells after the solvent control DMSO acted for 72 hours was set as a C value. The optical density of the cells on which the test compounds acted for 72 hours was set as a Ti value. The response of the cells to the drug was calculated according to a method proposed by the U.S. NIH-NCI (National Institutes of Health-National Institute of Cancer): When Ti is more than or equal to Tz, the value was [(Ti−Tz)/(C−Tz)]×100; and when Ti is less than Tz, the value was [(Ti−Tz)/Tz]×100.

[11] = system: PC9 cells expressing EGFR-T790M/Del19; assay: as above; type: cell-based; settings: Homo sapiens, PC-9, 72 h, read-out: EGFR-T790M/Del19 GI50
Description: as §3, §4, §5

[12] = system: PC9 cells expressing EGFR-C797S/T790M/Del19; assay: as above; type: cell-based; settings: Homo sapiens, PC-9, 72 h, read-out: EGFR-C797S/T790M/Del19 GI50
Description: as §3, §4, §5

[13] = Solubility test; type: physicochemical; settings: Solution with pH = 6.8, 25° C.±2° C.
[14] = Comparative experiment of hygroscopicity (Chinese Pharmacopoeia 2020); type: physicochemical
Excerpt: The description of hygroscopic characteristics and the definition of hygroscopic weight gain are as follows: • Deliquescence: absorbs sufficient amount of water to form a liquid; • Very hygroscopic: the weight gain by hygroscopy is not less than 15%; • Hygroscopic: the weight gain by hygroscopy is less than 15% but not less than 2%; • Slightly hygroscopic: the weight gain by hygroscopy is less than 2% but not less than 0.2%; and
Not or almost not hygroscopic: the weight gain by hygroscopy is less than 0.2% from hygroscopicity.

[15] = biological target: T3, BaF3 EML-4-ALK-L1196M cell line (Homo sapiens, UniProt Q9UM73, L1196M, cells depend on it); assay: Cell anti-proliferation experiment 4 (CCK-8); type: cell-based; settings: BaF3 EML-4-ALK-L1196M cells, 72 hours
T3 construct: fused on or other part: Q9HC35 (Echinoderm microtubule-associated protein-like 4)
Description: • 1. […] Test materials • BaF3 EML-4-ALK-L1196M cell line, brand: KYinno, article number: KC-0102 • Cell Counting Kit-8 (CCK-8), brand: Targetmol, article number: C0005 • Multifunctional microplate reader, POLARstar Omega, brand: BMG LABTECH • 3. […] 10 μL of the compound diluted in gradient was added to the cell plate to give final concentrations of the compounds as 500, 166.67, 55.56, 18.52, 6.17, 2.06, 0.69, 0.23 and 0.08 nM. • d. […] Test results: The IC50 values of compound DA and compound 1 in the patent application WO2021073498A1 against BaF3 cells expressing EML-4-ALK-L1196M are shown in Table 23.

Ba/F3 cells expressing EGFR-T790M/Del19, sequence (P00533 with tags, fused parts or gaps DEL746-750/T790M, form open): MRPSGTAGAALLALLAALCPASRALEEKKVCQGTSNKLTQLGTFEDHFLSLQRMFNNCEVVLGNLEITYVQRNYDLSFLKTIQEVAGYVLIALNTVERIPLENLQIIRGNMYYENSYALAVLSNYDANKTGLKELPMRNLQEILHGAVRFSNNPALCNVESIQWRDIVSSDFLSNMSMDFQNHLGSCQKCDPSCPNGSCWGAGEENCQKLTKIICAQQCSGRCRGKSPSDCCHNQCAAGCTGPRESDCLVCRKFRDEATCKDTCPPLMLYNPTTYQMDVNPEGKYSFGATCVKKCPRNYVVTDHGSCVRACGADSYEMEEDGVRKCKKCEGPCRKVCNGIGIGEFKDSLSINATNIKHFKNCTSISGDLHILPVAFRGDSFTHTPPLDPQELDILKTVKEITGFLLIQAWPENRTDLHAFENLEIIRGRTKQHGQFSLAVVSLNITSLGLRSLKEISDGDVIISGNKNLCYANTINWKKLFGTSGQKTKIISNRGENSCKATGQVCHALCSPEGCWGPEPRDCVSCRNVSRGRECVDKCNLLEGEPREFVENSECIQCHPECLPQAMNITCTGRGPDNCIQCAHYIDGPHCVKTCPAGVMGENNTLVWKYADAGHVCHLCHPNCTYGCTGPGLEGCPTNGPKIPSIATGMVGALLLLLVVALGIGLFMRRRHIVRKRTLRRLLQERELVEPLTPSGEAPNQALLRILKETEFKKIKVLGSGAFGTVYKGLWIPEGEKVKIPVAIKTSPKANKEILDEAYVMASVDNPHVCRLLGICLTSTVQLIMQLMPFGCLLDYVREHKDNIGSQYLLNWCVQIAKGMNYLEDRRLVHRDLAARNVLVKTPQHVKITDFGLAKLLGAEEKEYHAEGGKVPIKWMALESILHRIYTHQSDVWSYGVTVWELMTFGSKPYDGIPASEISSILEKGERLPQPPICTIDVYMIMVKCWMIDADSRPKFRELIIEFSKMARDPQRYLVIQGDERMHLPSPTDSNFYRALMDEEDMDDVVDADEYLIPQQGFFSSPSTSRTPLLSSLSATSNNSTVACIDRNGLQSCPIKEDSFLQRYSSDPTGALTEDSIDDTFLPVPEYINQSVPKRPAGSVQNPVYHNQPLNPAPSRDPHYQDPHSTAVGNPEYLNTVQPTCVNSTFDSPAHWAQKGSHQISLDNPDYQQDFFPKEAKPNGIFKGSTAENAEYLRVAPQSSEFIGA
Ba/F3 cells expressing EGFR-C797S/L858R, sequence (P00533 whole entry C797S/L858R): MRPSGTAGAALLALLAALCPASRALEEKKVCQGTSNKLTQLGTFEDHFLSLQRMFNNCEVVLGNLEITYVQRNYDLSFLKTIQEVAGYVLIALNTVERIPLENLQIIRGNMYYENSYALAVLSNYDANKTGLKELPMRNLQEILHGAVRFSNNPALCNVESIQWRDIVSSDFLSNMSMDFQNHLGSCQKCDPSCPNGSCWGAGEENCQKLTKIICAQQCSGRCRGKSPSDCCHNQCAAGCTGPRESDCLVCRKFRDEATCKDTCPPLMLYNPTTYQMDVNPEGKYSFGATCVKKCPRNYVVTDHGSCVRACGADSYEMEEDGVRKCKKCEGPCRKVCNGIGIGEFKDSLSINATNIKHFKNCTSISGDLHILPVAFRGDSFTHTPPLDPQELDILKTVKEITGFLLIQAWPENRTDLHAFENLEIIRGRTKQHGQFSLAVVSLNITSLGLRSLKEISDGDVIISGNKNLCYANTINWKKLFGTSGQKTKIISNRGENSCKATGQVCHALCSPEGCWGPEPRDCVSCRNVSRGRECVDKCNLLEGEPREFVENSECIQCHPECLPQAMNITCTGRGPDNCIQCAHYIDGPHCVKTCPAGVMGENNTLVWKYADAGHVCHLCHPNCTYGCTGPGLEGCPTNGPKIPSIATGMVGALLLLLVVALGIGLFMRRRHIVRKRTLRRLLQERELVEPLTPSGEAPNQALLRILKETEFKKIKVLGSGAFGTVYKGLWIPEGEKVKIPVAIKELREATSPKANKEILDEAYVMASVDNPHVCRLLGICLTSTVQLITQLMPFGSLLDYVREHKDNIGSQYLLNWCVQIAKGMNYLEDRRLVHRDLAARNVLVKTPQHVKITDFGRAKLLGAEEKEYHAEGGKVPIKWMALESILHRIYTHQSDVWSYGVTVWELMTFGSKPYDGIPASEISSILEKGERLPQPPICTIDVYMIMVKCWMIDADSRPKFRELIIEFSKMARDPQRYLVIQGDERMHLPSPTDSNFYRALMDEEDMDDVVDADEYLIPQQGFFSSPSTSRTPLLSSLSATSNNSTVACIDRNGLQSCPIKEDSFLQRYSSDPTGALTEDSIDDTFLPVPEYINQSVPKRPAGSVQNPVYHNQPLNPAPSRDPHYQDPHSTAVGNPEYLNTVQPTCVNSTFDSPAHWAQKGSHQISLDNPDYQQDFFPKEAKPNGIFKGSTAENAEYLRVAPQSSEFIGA
T1 sequence (Q9UM73 whole entry, change not shown, the tested form may be a part): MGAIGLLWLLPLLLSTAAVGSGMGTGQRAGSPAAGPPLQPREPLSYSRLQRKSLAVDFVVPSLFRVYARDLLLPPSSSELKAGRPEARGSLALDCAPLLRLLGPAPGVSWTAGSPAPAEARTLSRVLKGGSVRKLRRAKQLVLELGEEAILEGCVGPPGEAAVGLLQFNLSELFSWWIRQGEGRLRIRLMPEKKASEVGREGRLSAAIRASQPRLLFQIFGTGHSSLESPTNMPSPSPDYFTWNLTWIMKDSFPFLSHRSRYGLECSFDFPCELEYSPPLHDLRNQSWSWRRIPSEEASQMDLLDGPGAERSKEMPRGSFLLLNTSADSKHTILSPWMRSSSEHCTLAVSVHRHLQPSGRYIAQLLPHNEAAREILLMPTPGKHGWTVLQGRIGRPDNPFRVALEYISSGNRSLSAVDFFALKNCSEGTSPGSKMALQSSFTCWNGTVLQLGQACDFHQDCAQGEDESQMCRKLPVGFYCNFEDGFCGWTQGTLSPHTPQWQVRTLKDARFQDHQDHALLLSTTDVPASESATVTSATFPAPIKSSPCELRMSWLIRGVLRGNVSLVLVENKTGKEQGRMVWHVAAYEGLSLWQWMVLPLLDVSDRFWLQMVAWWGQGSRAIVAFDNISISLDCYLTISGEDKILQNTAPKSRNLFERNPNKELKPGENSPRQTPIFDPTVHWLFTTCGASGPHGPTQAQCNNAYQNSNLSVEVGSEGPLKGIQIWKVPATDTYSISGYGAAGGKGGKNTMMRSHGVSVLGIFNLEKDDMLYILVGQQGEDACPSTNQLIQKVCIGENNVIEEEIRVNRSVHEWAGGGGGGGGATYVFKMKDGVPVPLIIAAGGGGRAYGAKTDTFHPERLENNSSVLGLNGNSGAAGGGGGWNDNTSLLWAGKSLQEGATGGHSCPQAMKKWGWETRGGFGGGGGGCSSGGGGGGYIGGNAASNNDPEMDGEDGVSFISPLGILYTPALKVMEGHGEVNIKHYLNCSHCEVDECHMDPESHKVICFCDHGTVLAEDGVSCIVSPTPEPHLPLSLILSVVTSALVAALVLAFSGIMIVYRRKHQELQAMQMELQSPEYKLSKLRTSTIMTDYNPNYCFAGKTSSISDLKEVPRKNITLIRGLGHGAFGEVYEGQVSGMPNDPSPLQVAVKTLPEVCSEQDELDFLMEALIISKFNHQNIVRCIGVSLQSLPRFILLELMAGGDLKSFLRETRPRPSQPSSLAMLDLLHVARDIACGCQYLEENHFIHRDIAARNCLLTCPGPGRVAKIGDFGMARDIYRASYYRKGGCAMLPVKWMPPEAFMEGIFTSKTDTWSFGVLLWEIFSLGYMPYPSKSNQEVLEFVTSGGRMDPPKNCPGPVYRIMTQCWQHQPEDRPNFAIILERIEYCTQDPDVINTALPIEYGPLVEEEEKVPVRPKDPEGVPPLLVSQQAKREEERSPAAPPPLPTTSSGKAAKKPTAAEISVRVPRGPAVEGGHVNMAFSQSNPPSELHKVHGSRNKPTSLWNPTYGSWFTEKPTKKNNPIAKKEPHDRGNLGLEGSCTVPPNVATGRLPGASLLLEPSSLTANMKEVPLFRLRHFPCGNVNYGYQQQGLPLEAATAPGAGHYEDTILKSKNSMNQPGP
T3 sequence (Q9UM73 whole entry L1196M, the tested form may be a part): as the sequence (Q9UM73 whole entry, change not shown, the tested form may be a part) above, with L1196M counted along it
T2 sequence (Q9UM73 whole entry L1196M, the tested form may be a part): as the sequence (Q9UM73 whole entry, change not shown, the tested form may be a part) above, with L1196M counted along it

Row | Structure (SMILES) | GI50 [1] [nM] | GI50 [2] [nM] | GI50 [3] [nM] | GI50 [4] [nM] | GI50 [5] [nM] | GI50 [6] [nM] | GI50 [7] [nM] | GI50 [8] [nM] | GI50 [9] [nM] | GI50 [10] [nM] | GI50 [11] [nM] | GI50 [12] [nM] | Solubility for 24 h [13] [µg/mL] | Hygroscopicity ([14]; class by weight gain after 24 h) | Weight gain % after 24 h ([14]; hygroscopicity test, 24 h) [%] | GI50 ([15]; CCK-8, first test, read-out: IC50 in the first test) [nM] | GI50 ([15]; CCK-8, second test, read-out: IC50 in the second test) [nM]
1 | COc1cc(N2CCC(N3CCN(C)CC3)CC2)c(C)cc1Nc1ncc(Cl)c(Nc2cccc(C)c2P(C)(C)=O)n1 [Control compound 1] | 180 | 626 | 166 | 34.1 | 184 | 65 | 1600 | 573 | 156 | – | – | – | – | – | – | – | –
2 | COc1cc(N2CCC(N3CCN(C)CC3)CC2)c(C)cc1Nc1ncc(Br)c(Nc2ccc(C)cc2P(C)(C)=O)n1 [Compound DA, (2-((5-Bromo-2-((2-methoxy-5-methyl-4-(4-(4-methylpiperazin-1-yl)piperidin-1-yl)phenyl)amino)pyrimidin-4-yl)amino)-5-methylphenyl)dimethylphosphorus oxide] | 16.5 | 64.1 | 6.5 | 8 | 48.1 | 13.1 | 1260 | 32.6 | 22.5 | 48.4 | 12.8 | 15.6 | 2110 | Hygroscopic (the weight gain by hygroscopy is less than 15% but not less than 2%) | 3.78 | 15.1 | 10.4
3 | COc1cc(N2CCC(N3CCN(C)CC3)CC2)ccc1Nc1ncc(Cl)c(Nc2ccccc2P(C)(C)=O)n1 [Brigatinib (Brigatinib), Brigatinib] | – | – | – | – | – | – | – | – | – | 287 | 256 | 516 | – | – | – | – | –
